This experiment deals with male ICR mice. In words: Formalin paw test. The settings on record: for Early Phase: early/acute phase (0-10 minutes) after 2% formalin into hind paw; for Late Phase: late/tonic phase (10-35 minutes) after 2% formalin into hind paw. It is filed as in vivo, mouse. How it is done:
One test compound or the vehicle was administered to each mouse in each test group (8 mice per group). Non-fasted male ICR mice weighing 23±3 g were used. Test compounds were administered at a concentration of 30 mg/kg, 100 mg/kg or 200 mg/kg; morphine was administered at a concentration of 10 mg/kg; and acetaminophen was administered at a concentration of >100 mg/kg. The control group received the vehicle (5% DMSO/15% PEG400/10% HPbCD/0.9% Saline). After 10 minutes, a 2% formalin solution (0.02 mL) was injected into one hind paw (sub-plantar) of each mouse. Responses were measured every 5 minutes after the formalin injection for 35 minutes.
The results in Table A are for oral administration; the results in Table B are for intraperitoneal administration; the results in Table C are for intravenous administration. In Tables A, B, and C, ‘A’ designates <70 licks/sec, ‘B’ designates ≥70 licks/sec and <165 licks/sec, and ‘C’ designates ≥165 licks/sec.

Where [1] appears, read: intraperitoneal administration, 30 mg/kg.
Where [2] appears, read: intravenous administration, 100 mg/kg.

Take `Cc1ncc(CN)s1` [Compound 13]: under setting [1], the “Early Phase” value is “B (‘B’ designates ≥70 licks/sec and <165 licks/sec)”; the “Late Phase” value is given as “C (‘C’ designates ≥165 licks/sec)”.

As for `CC(C)(C)c1nnc(N)s1` [Compound 4], under setting [1], the “Early Phase” value was “B (‘B’ designates ≥70 licks/sec and <165 licks/sec)”; the “Late Phase” value is “C (‘C’ designates ≥165 licks/sec)”.

For `Cc1coc(N)n1` [Compound 1], under setting [1], the “Early Phase” value is “B (‘B’ designates ≥70 licks/sec and <165 licks/sec)”; the “Late Phase” value is listed as “C (‘C’ designates ≥165 licks/sec)”.

Consider `CC(C)(C)C(=O)Nc1ccc(O)cc1` [Compound 26], for which, where the note is “oral administration, 200 mg/kg”, the “Early Phase” value is “B (‘B’ designates ≥70 licks/sec and <165 licks/sec)”; the “Late Phase” value is “B (‘B’ designates ≥70 licks/sec and <165 licks/sec)”.

As for `CC(C)(C)c1nnc(N)o1` [Compound 6], under setting [1], the “Early Phase” value was “B (‘B’ designates ≥70 licks/sec and <165 licks/sec)”; the “Late Phase” value is recorded as “C (‘C’ designates ≥165 licks/sec)”.

Consider `Cc1cc(CN)nn1C` [Compound 17], for which, under setting [1], the “Early Phase” value is “B (‘B’ designates ≥70 licks/sec and <165 licks/sec)”; the “Late Phase” value is “B (‘B’ designates ≥70 licks/sec and <165 licks/sec)”.

For `Cc1nc(CN)cs1` [Compound 14], under setting [1], the “Early Phase” value is “B (‘B’ designates ≥70 licks/sec and <165 licks/sec)”; the “Late Phase” value is on record as “C (‘C’ designates ≥165 licks/sec)”.

On to `CC(=O)Nc1ccc(C(F)(F)F)cc1` [Compound 29], for which, where the note is “oral administration, 200 mg/kg”, the “Early Phase” value is “A (‘A’ designates <70 licks/sec)” and the “Late Phase” value is “A (‘A’ designates <70 licks/sec)”.

Consider `CC(C)(C)c1csc(N)n1` [Compound 10], for which, under setting [1], the “Early Phase” value is “A (‘A’ designates <70 licks/sec)” and the “Late Phase” value is on record as “A (‘A’ designates <70 licks/sec)”.

Regarding `Nc1ncc(C(F)(F)F)cn1` [Compound 22], under setting [1], the “Early Phase” value is “B (‘B’ designates ≥70 licks/sec and <165 licks/sec)”; the “Late Phase” value is on record as “C (‘C’ designates ≥165 licks/sec)”.

With `Nc1cccc(C(F)(F)F)n1` [Compound 21], under setting [1], the “Early Phase” value is “B (‘B’ designates ≥70 licks/sec and <165 licks/sec)”; the “Late Phase” value is recorded as “C (‘C’ designates ≥165 licks/sec)”.

Take `Nc1nnc(C(F)(F)F)o1` [Compound 2]: under setting [1], the “Early Phase” value was “B (‘B’ designates ≥70 licks/sec and <165 licks/sec)”; the “Late Phase” value is “C (‘C’ designates ≥165 licks/sec)”.

`CC(C)(C)c1csc(CN)n1` [Compound 7]: under setting [1], the “Early Phase” value is “B (‘B’ designates ≥70 licks/sec and <165 licks/sec)”; the “Late Phase” value is given as “A (‘A’ designates <70 licks/sec)”.

Take `Nc1nnc(C(F)(F)F)s1` [Compound 5]: under setting [1], the “Early Phase” value is “B (‘B’ designates ≥70 licks/sec and <165 licks/sec)”; the “Late Phase” value is “C (‘C’ designates ≥165 licks/sec)”.

As to `CC(=O)Nc1ccc(C(C)(C)C)cc1` [Compound 28], under “oral administration, 200 mg/kg”, the “Early Phase” value is “B (‘B’ designates ≥70 licks/sec and <165 licks/sec)”; the “Late Phase” value was “B (‘B’ designates ≥70 licks/sec and <165 licks/sec)”.

For `CC(C)(C)c1nccc(N)n1` [Compound 19], under setting [1], the “Early Phase” value was “B (‘B’ designates ≥70 licks/sec and <165 licks/sec)”; the “Late Phase” value is “C (‘C’ designates ≥165 licks/sec)”.

Regarding `NCc1ccc(C(F)(F)F)cc1` [Compound 18], under setting [1], the “Early Phase” value is “B (‘B’ designates ≥70 licks/sec and <165 licks/sec)”; the “Late Phase” value was “C (‘C’ designates ≥165 licks/sec)”.

For `NCc1nc(C(F)(F)F)cs1` [Compound 8], under setting [1], the “Early Phase” value is listed as “A (‘A’ designates <70 licks/sec)” and the “Late Phase” value is on record as “A (‘A’ designates <70 licks/sec)”.

For the compound `NCCc1nc(C(F)(F)F)cs1` [Compound 9], under setting [1], the “Early Phase” value is on record as “A (‘A’ designates <70 licks/sec)” and the “Late Phase” value was “A (‘A’ designates <70 licks/sec)”.

`CC(C)(C)c1nnc(CN)s1` [Compound 3]: under setting [1], the “Early Phase” value is on record as “A (‘A’ designates <70 licks/sec)”; the “Late Phase” value was “B (‘B’ designates ≥70 licks/sec and <165 licks/sec)”.

Take `NCc1cccc(C(F)(F)F)n1` [Compound 24]: under setting [1], the “Early Phase” value was “B (‘B’ designates ≥70 licks/sec and <165 licks/sec)”; the “Late Phase” value was “C (‘C’ designates ≥165 licks/sec)”.

Take `Cc1nc(N)oc1C` [Compound 16]: under setting [1], the “Early Phase” value is “A (‘A’ designates <70 licks/sec)” and the “Late Phase” value is given as “A (‘A’ designates <70 licks/sec)”.

Regarding `NCCc1ccc(C(F)(F)F)cc1` [Compound 25], under setting [1], the “Early Phase” value was “A (‘A’ designates <70 licks/sec)”; the “Late Phase” value was “B (‘B’ designates ≥70 licks/sec and <165 licks/sec)”.

Regarding `CCn1cc(CN)cn1` [Compound 15], under setting [1], the “Early Phase” value is “B (‘B’ designates ≥70 licks/sec and <165 licks/sec)”; the “Late Phase” value is listed as “A (‘A’ designates <70 licks/sec)”.

`Nc1nccc(C(F)(F)F)n1` [Compound 20]: under setting [1], the “Early Phase” value was “B (‘B’ designates ≥70 licks/sec and <165 licks/sec)”; the “Late Phase” value is “C (‘C’ designates ≥165 licks/sec)”.

As for `CC(=O)NCc1ccc(C(F)(F)F)cc1` [Compound 27], under setting [2], the “Early Phase” value is given as “A (‘A’ designates <70 licks/sec)” and the “Late Phase” value is reported as “A (‘A’ designates <70 licks/sec)”.

The values are drawn from US10653681B2, “Analgesic compounds” (Recurium IP Holdings, LLC, priority 2016, dated 2020).
